Earlier results, collected in patent US20210319872A1, “DRUG AND DEVICE COMBINATION PRODUCTS WITH IMPROVED SAFETY AND EFFICACY PROFILES” (priority 2016, published 2021).
Like-named read-outs stand apart in the source and are kept apart here.

Compound: CCOC(=O)C1=C(COCCN)NC(C)=C(C(=O)OC)C1c1ccccc1Cl (centres unmarked) [Amlodipine (Norvasc, Lotrel)]
- Abdominal pain (in vivo): Gastrointestinal: Abdominal pain (1.6%), Nausea (2.9%.)
- Dizziness (in vivo): Neurologic: Dizziness (Up to 3.4%), Headache (7.3%),
- Fatigue (in vivo): Other: Fatigue (4.5%)
- Flushing (in vivo): Cardiovascular: Flushing (0.7% to 2.6%), Palpitations (Up to
- Headache (in vivo): Neurologic: Dizziness (Up to 3.4%), Headache (7.3%),
- Nausea (in vivo): Gastrointestinal: Abdominal pain (1.6%), Nausea (2.9%.)
- Palpitations (in vivo): ≤ 4.5%), Peripheral edema (Up to 10.8%)
- Peripheral edema (in vivo): ≤ 4.5%), Peripheral edema (Up to 10.8%)
- Somnolence (in vivo): Somnolence (1.4%)

Compound: O=C1CCC(N2C(=O)c3ccccc3C2=O)C(=O)N1 (centres unmarked) [Thalomid]
- Nausea (erythema nodosum leprosum): 4.2%
- Rash (erythema nodosum leprosum): nodosum leprosum, 20.8%)
- Tremor (erythema nodosum leprosum): Tremor (erythema nodosum leprosum, 4.2%; multiple myeloma,
- Ischemic heart disease (in vivo): 11.1%
- Myocardial infarction (in vivo): Myocardial infarction (1.3%)
- Serious side effect, Cardiovascular (listed without frequency): Cardiac dysrhythmia
- Asthenia (multiple myeloma): 21.9%; multiple myeloma, 24%), Confusional state (multiple
- Atrial fibrillation, Grade 3/4 (multiple myeloma): 5%
- Confusional state (multiple myeloma): 28%
- Dizziness (multiple myeloma): 19.2%; multiple myeloma, 23%), Somnolence (erythema nodosum
- Dry skin (multiple myeloma): Dermatologic: Dry skin (multiple myeloma, 21%), Rash (erythema
- Dyspnea (multiple myeloma): Respiratory: Dyspnea (multiple myeloma, 42%), Pneumonia
- Fever (multiple myeloma): 24%
- Hypocalcemia (multiple myeloma): Endocrine metabolic: Hypocalcemia (multiple myeloma, 72%),
- Indigestion (multiple myeloma): 11%
- Leukopenia (multiple myeloma): multiple myeloma, 35%)
- Muscle weakness (multiple myeloma): Musculoskeletal: Muscle weakness (multiple myeloma, 40%)
- Peripheral edema (multiple myeloma): multiple myeloma, 34%)
- Pneumonia (multiple myeloma): (multiple myeloma, 15%)
- Somnolence (multiple myeloma): ≥ 3%
- Tremor (multiple myeloma): 26%)
- Weight loss (multiple myeloma): (multiple myeloma, 23%)

Compound: CCOc1nc2cccc(C(=O)O)c2n1Cc1ccc(-c2ccccc2-c2nnn[nH]2)cc1 [Candesartan (Atacand)]
- Backache (in vivo): Musculoskeletal: Backache (3%.)
- Dizziness (in vivo): Neurologic: Dizziness (less than 5%)
- Hypotension (in vivo): Cardiovascular: Hypotension (18.8%)
- Pharyngitis (in vivo): Respiratory: Pharyngitis (2%), Rhinitis (2%), Upper respiratory
- Rhinitis (in vivo): Respiratory: Pharyngitis (2%), Rhinitis (2%), Upper respiratory
- Upper respiratory infection (in vivo): infection (6%)

Compound: COc1ccc(C(CN(C)C)C2(O)CCCCC2)cc1 (centres unmarked) [Venlafaxine (Effexor)]
- Abnormal ejaculation (in vivo): Reproductive: Abnormal ejaculation (2.2% to 19%), Erectile
- Asthenia (in vivo): Neurologic: Asthenia (8% to 19%), Dizziness (11% to 23.9%),
- Dizziness (in vivo): Neurologic: Asthenia (8% to 19%), Dizziness (11% to 23.9%),
- Dream disorder (in vivo): Dream disorder (3% to 7%), Headache (25% to 38%), Insomnia
- Erectile dysfunction (in vivo): dysfunction (2.1% to 6%), Orgasm disorder (2% to 5%)
- Feeling nervous (in vivo): Psychiatric: Feeling nervous (4% to 21.3%)
- Headache (in vivo): Dream disorder (3% to 7%), Headache (25% to 38%), Insomnia
- Hypertension (in vivo): Cardiovascular: Hypertension (3% to 13%)
- Nausea (in vivo): 22%), Nausea (21% to 58%), Xerostomia (12% to 22%)
- Orgasm disorder (in vivo): dysfunction (2.1% to 6%), Orgasm disorder (2% to 5%)
- Seizure (in vivo): Neurologic: Seizure (0.3%)
- Sweating symptom (in vivo): Dermatologic: Sweating symptom (6.7% to 25%)
- Weight loss (in vivo): Endocrine metabolic: Weight loss (3% to 47%)
- Xerostomia (in vivo): 22%), Nausea (21% to 58%), Xerostomia (12% to 22%)

Compound: N=C(N)NC(=O)c1nc(Cl)c(N)nc1N [Amiloride (Midamor)]
- Asthenia (in vivo): Musculoskeletal: Asthenia (greater than 1% to less than 3%),
- Cardiac dysrhythmia (incidence) (in vivo): Cardiovascular: Cardiac dysrhythmia (1% or less), Palpitations (1%
- Cough (incidence) (in vivo): Respiratory: Cough (greater than 1% to less than 3%), Dyspnea
- Cramp (in vivo): Cramp (greater than 1% to less than 3%)
- Diarrhea (in vivo): Gastrointestinal: Diarrhea (3% to 8%), Loss of appetite (3% to 8%),
- Dizziness (in vivo): Neurologic: Dizziness (greater than 1% to less than 3%), Headache
- Dyspnea (incidence) (in vivo): (greater than 1% to less than 3%)
- Encephalopathy (incidence) (in vivo): Neurologic: Encephalopathy (greater than 1% to less than 3%)
- Headache (incidence) (in vivo): (3% to 8%)
- Hyperkalemia (incidence) (in vivo): Endocrine metabolic: Hyperkalemia (10%)
- Nausea (in vivo): Nausea (3% to 8%), Vomiting (3% to 8%)
- Palpitations (incidence) (in vivo): Cardiovascular: Cardiac dysrhythmia (1% or less), Palpitations (1%
- Raised intraocular pressure (incidence) (in vivo): Ophthalmic: Raised intraocular pressure (1% or less)
- Rash (in vivo): Dermatologic: Rash (1% or less)
- Serious side effect listed (incidence not given) (in vivo): Hematologic: Aplastic anemia, Neutropenia
- Vomiting (in vivo): Nausea (3% to 8%), Vomiting (3% to 8%)

Compound: NCC1(CC(=O)O)CCCCC1 [Gabapentin (Neurontin)]
- Ataxia (in vivo): Neurologic: Ataxia (Adult, 3%; adult and adolescent, 13%),
- Disorder of form of thought (in vivo): Psychiatric: Disorder of form of thought (Pediatric, 1.7%),
- Disturbance in thinking (in vivo): Disturbance in thinking (2% to 3%), Hostile behavior (Pediatric,
- Fatigue (in vivo): Other: Fatigue (3% to 11%), Fever (Pediatric, 10%)
- Fever (in vivo): Other: Fatigue (3% to 11%), Fever (Pediatric, 10%)
- Hostile behavior (in vivo): 5.2%), Hyperactive behavior (Pediatric, 4.7%), Mood swings
- Hyperactive behavior (in vivo): 5.2%), Hyperactive behavior (Pediatric, 4.7%), Mood swings
- Mood swings (in vivo): (Pediatric, 6%), Suicidal thoughts
- Nausea (in vivo): Gastrointestinal: Nausea (greater than 1%), Vomiting (3.3%)
- Nystagmus (in vivo): Nystagmus (Adult and adolescent, 8%)
- Peripheral edema (in vivo): Cardiovascular: Peripheral edema (1.7% to 8.3%)
- Serious side effect, Dermatologic (in vivo): Dermatologic: Stevens-Johnson syndrome
- Serious side effect, Immunologic (in vivo): Immunologic: Drug hypersensitivity syndrome
- Serious side effect, Psychiatric (in vivo): (Pediatric, 6%), Suicidal thoughts
- Viral disease (in vivo): Immunologic: Viral disease (10.9%)
- Vomiting (in vivo): Gastrointestinal: Nausea (greater than 1%), Vomiting (3.3%)

Compound: CN1CC[C@]23c4c5ccc(O)c4O[C@H]2C(=O)CC[C@@]3(O)[C@H]1C5 [Oxymorphone, reference compound]
- Abdominal pain (in vivo): Gastrointestinal: Abdominal pain (1% to less than 10%),
- Bowel obstruction (in vivo): Gastrointestinal: Bowel obstruction (less than 1%)
- Constipation (in vivo): Constipation (4.1% to 27.6%), Nausea (2.9% to 33.1%), Vomiting
- Fatigue (in vivo): Other: Fatigue (1% to less than 10%), Fever (1% to 14.2%)
- Fever (in vivo): Other: Fatigue (1% to less than 10%), Fever (1% to 14.2%)
- Headache (in vivo): 17%), Headache (4% to 12%), Somnolence (2% to 19%)
- Hypotension (in vivo): Cardiovascular: Hypotension (less than 10%)
- Hypoxia (in vivo): < 10%)
- Nausea (in vivo): Constipation (4.1% to 27.6%), Nausea (2.9% to 33.1%), Vomiting
- Pruritus (in vivo): Dermatologic: Pruritus (less than or equal to 15.2%), Sweating
- Serious side effect, Neurologic (in vivo): Neurologic: Coma
- Serious side effect, Respiratory (in vivo): Respiratory: Respiratory depression
- Somnolence (in vivo): 17%), Headache (4% to 12%), Somnolence (2% to 19%)
- Sweating symptom (in vivo): symptom (1% to less than 10%)
- Vomiting (in vivo): (less than or equal to 15.6%), Xerostomia (1% to less than 10%)
- Xerostomia (in vivo): (less than or equal to 15.6%), Xerostomia (1% to less than 10%)

Compound: CS(=O)(=O)O.Fc1ccc([C@@H]2CCNC[C@H]2COc2ccc3c(c2)OCO3)cc1 [Brisdelle]
- Asthenia (in vivo): Neurologic: Asthenia (2.9% to 22%), Dizziness (6% to 14%),
- Constipation (in vivo): Gastrointestinal: Constipation (4.9% to 16%), Diarrhea (7.9% to
- Diaphoresis (in vivo): Dermatologic: Diaphoresis (1% to 14%)
- Dizziness (in vivo): Neurologic: Asthenia (2.9% to 22%), Dizziness (6% to 14%),
- Insomnia (in vivo): vasomotor symptoms, 6.3%), Insomnia (11% to 24%), Somnolence
- Nausea (in vivo): ≤ 19.2%), Loss of appetite (2% to 9%), Nausea (up to 36.3%),
- Reduced libido (in vivo): 9%), Reduced libido (males, 6% to 15%; females, 0% to 9%)
- Serious side effect, Other (in vivo): Other: Serotonin syndrome
- Serious side effect, Psychiatric (in vivo): Psychiatric: Depression, Exacerbation, Suicidal thoughts, Suicide
- Somnolence (in vivo): (12.7% to 24%), Tremor (up to 14.7%)
- Tremor (in vivo): (12.7% to 24%), Tremor (up to 14.7%)
- Xerostomia (in vivo): Xerostomia (10.8% to 20.6%)

Compound: CNCCC=C1c2ccccc2CCc2ccccc21 [Nortriptyline (Pamelor)]
- Common side effects, listed without incidence (in vivo): Gastrointestinal: Constipation

Compound: CCOC(=O)[C@H](CCc1ccccc1)N[C@@H](C)C(=O)N1[C@H](C(=O)O)C[C@@H]2CCC[C@@H]21 [Ramipril (Altace)]
- Cough (in vivo): Respiratory: Cough (8% to 12%)
- Dizziness (in vivo): Neurologic: Asthenia, Dizziness (2.2% to 4%), Headache (5.4%)
- Headache (in vivo): Neurologic: Asthenia, Dizziness (2.2% to 4%), Headache (5.4%)
- Hypotension (in vivo): Cardiovascular: Hypotension (11%)

Compound: O=c1n(CCCN2CCN(c3cccc(Cl)c3)CC2)nc2ccccn12 [Trazodone (Desyrel)]
- Backache (in vivo): Musculoskeletal: Backache (5%)
- Confusion (in vivo): Neurologic: Confusion (up to 5.7%), Dizziness (25%), Headache
- Constipation (in vivo): Gastrointestinal: Constipation (7% to 8%), Diarrhea (up to 9%),
- Diarrhea (in vivo): Gastrointestinal: Constipation (7% to 8%), Diarrhea (up to 9%),
- Dizziness (in vivo): Neurologic: Confusion (up to 5.7%), Dizziness (25%), Headache
- Fatigue (in vivo): Other: Fatigue (5.7% to 15%)
- Hypersensitivity reaction (in vivo): Immunologic: Hypersensitivity reaction (less than 1%)
- Hypotension (in vivo): Cardiovascular: Cardiac dysrhythmia, Hypotension (3.8% to 7%),
- Nausea (in vivo): Nausea (21%), Vomiting (at least 1%), Xerostomia (14% to 33.8%)
- Vomiting (in vivo): Nausea (21%), Vomiting (at least 1%), Xerostomia (14% to 33.8%)
- Xerostomia (in vivo): Nausea (21%), Vomiting (at least 1%), Xerostomia (14% to 33.8%)

Compound: NCCCC[C@H](N[C@@H](CCc1ccccc1)C(=O)O)C(=O)N1CCC[C@H]1C(=O)O [Lisinopril (Prinivil, Zestril)]
- Dizziness (in vivo): Neurologic: Dizziness (12% to 19%), Headache
- Hyperkalemia (in vivo): Endocrine metabolic: Hyperkalemia (2.2% to 6%)
- Hypotension (in vivo): Cardiovascular: Chest pain, Hypotension (up to 11%), Syncope
- Hypotension (Severe) (in vivo): Cardiovascular: Hypotension (Severe) (9%)
- Renal impairment (in vivo): Renal: Acute renal failure, Renal impairment (2.4%)
- Stevens-Johnson syndrome (in vivo): Dermatologic: Stevens-Johnson syndrome (1% or more), Toxic
- Syncope (in vivo): (5% to 7%)
